From ChEMBL document CHEMBL1133149, “Synthesis and biological evaluation of analogues of bacterial lipid I” (Bioorg Med Chem Lett, 2000)
Values after ≈ are worked out from the molar mass of the structure shown. Values belong to the compound of their own block, whether it stands above or below them.

Assays:
[1] = Compound was evaluated for its ability to inhibit MraY enzyme for the conversion of Lipid I to lipid II in coupled MraY/MurG assay; NI is No Inhibition at 234 ug/mL; design: species or system Escherichia coli
Escherichia coli [2] = assay: Compound was evaluated for its ability to inhibit MraY enzyme for the conversion of Lipid I to lipid II in the coupled MraY/MurG assay; Ni is No Inhibition at 238 ug/mL
Escherichia coli [3] = assay: Compound was evaluated for its ability to inhibit the formation of peptidoglycan by incorporation of [14C]GlcNAc into TCA insoluble, filter-capturable material; NI is No Inhibition at 200 ug/mL; type: functional, organism-based
Escherichia coli [4] = assay: Compound was evaluated for its ability to inhibit MurG enzyme for the conversion of Lipid I to lipid II in the coupled MraY/MurG assay; NI is No inhibition at 238 ug/mL
[5] = Compound was evaluated for its ability to inhibit MurG enzyme for the conversion of Lipid I to lipid II in MurG enzyme assay; design: species or system Escherichia coli
[6] = (§1) Compound was evaluated for its ability to inhibit MurG enzyme for the conversion of Lipid I to lipid II in coupled MraY/MurG assay; NI is No Inhibition at 234 ug/mL; design: species or system Escherichia coli
Escherichia coli [7] = assay: Compound was evaluated for its ability to inhibit MurG enzyme for the conversion of Lipid I to lipid II in MurG enzyme assay; NI is No Inhibition at 234 ug/mL
Escherichia coli [8] = assay: as §1
Escherichia coli [9] = assay: Compound was evaluated for its ability to inhibit MraY enzyme for the conversion of Lipid I to lipid II in the coupled MraY/MurG assay; Ni is No Inhibition at 234 ug/mL
Escherichia coli [10] = assay: Compound was evaluated for its ability to inhibit MurG enzyme for the conversion of Lipid I to lipid II in MurG enzyme assay; NI is No Inhibition at 256 ug/mL
Escherichia coli [11] = assay: Compound was evaluated for its ability to inhibit MurG enzyme for the conversion of Lipid I to lipid II in coupled MraY/MurG assay; NI is No Inhibition at 256 ug/mL
Escherichia coli [12] = assay: Compound was evaluated for its ability to inhibit MraY enzyme for the conversion of Lipid I to lipid II in the coupled MraY/MurG assay; Ni is No Inhibition at 256 ug/mL

Compound: CC(=O)N[C@H]1[C@@H](O[C@@H]2O[C@H](CC(O)[C@H]3O[C@@H](n4ccc(=O)[nH]c4=O)[C@H](O)[C@@H]3O)[C@H](O)[C@H](O)[C@H]2NC(=O)/C=C/CC(C)C)O[C@H](CO)[C@@H](N)[C@@H]1O (some centres undefined) [TUNICAMYCIN]
IC50 [1]: < 1 µg/mL

Activity (Escherichia coli [2]): No inhibition | Activity (Escherichia coli [4]): No inhibition | IC50 [5]: 50 µg/mL (≈ 59.3 µM)
Compound: CC(=O)NC1C(OP(=O)(O)O)OC(CO)C(O)C1O[C@@H](C)C(=O)N[C@@H](C)C(=O)N[C@H](CCC(=O)N[C@@H](CCCCN)C(=O)N[C@H](C)C(=O)N[C@H](C)C(=O)O)C(=O)O (some centres undefined)
Activity (Escherichia coli [3]): No inhibition

IC50 [6]: < 1 µg/mL
Compound: RAMOPLANIN

Activity (Escherichia coli [7]): No inhibition | Activity (Escherichia coli [8]): No inhibition | Activity (Escherichia coli [9]): No inhibition
Compound: CC(=O)NC1C(Sc2ccccc2)OC(CO)C(O)C1O[C@@H](C)C(=O)N[C@@H](C)C(=O)N[C@H](CCC(=O)N[C@@H](CCCCN)C(=O)N[C@H](C)C(=O)N[C@H](C)C(=O)O)C(=O)O (some centres undefined)
Activity (Escherichia coli [3]): No inhibition

Activity (Escherichia coli [10]): No inhibition | Activity (Escherichia coli [11]): No inhibition | Activity (Escherichia coli [12]): No inhibition
Compound: COC1OC(CO)C(O)C(O[C@@H](C)C(=O)N[C@@H](C)C(=O)N[C@H](CCC(=O)N[C@@H](CCCCN)C(=O)N[C@H](C)C(=O)N[C@H](C)C(=O)O)C(=O)O)C1NC(C)=O (some centres undefined)
Activity (Escherichia coli [3]): No inhibition
